Experimental findings from patent publication US10662204B2 (PFIZER INC., priority 2018, dated 2020) are described below.

Structures are written as SMILES.

Assay [1] has as its target T1, GDP-loaded KRAS (1-169) G12C, C51S, C80L, C118S (Homo sapiens, UniProt P01116, C118S/C51S/C80L/G12C).
T1 construct: GDP-loaded KRAS (1-169) G12C, C51S, C80L, C118S
In words: Mass Spectrometry Reactivity Assay (MSRA): covalent adduct of compound and KRAS G12C, Percent Modification. The class given is binding. The following applies: for MSRA (% modification) 5.0 μM 0.017 hr / MSRA (% modification) 5.0 μM 0.25 hr: 5.0 μM compound; for MSRA (% modification) 10 μM 0.25 hr / MSRA (% modification) 10 μM 0.50 hr: 10 μM compound. A digest of the protocol: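 Covalent labelling is measured by intact mass: deconvoluted modified and unmodified peak intensities yield percent modification. Compound, usually 5 μM or 10 μM final, reacts at room temperature with 5 μM GDP-bound KRAS G12C (1-169, C51S/C80L/C118S) in Hepes pH 7.5/NaCl/glycerol, sampled at 1, 15, 30, 60 min.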

For assay [2], the target named is T2, KRAS G12C (Homo sapiens, UniProt P01116, G12C). In words: Cell Activity Assay: IC50 in H358 cells. The class given is cell-based. More on the design: endogenous in cells. As to the method:
Compounds presented in the present invention lead to the accumulation of the GDP bound Ras upon treatment of human cancer cell line.
The accumulation of the GDP-bound KRAS G12C in cellular environment was measured based on the principle that KRAS G12C only binds to its downstream kinase; Raf-1 (MAP Kinase Kinase Kinase), when in its active-GTP bound state. In this state, Ras binded to a domain of Raf-1 kinase referred to as the Ras Binding Domain (RBD).
Raf-1 RBD (LJIC-1988A1) was diluted to 100 ng/well in PBS and 5 μl/well was spot coated onto MSD high bind SECTOR plates (L15XB). Plates were incubated at room temperature for 1 hour on an orbital shaker. Plates were washed with PBS/0.05% Tween-20 and 50 μl/well of thawed lysate samples were added, followed by 50 μl of 1% MSD Blocker A in PBS/0.05 Tween-20 (R93BA). Plates were incubated for 1 hour on an orbital shaker and washed with PBS/0.05% Tween-20. 25 μl/well of Anti-pan-Ras Antibody (Cell Biolabs 244003) diluted 1:3000 was added in 1% MSD Blocker A solution and plates were incubated for 1 hour on an orbital shaker and washed with PBS/0.05% Tween-20. SULFO-TAG goat anti-mouse secondary antibody (MSD R32AC) was diluted 1:500 in MSD Blocker A solution and added at 25 μL/well. Plates were incubated for 1 hour on an orbital shaker and washed with PBS/0.05% Tween-20. 150 μl/well of Read Buffer T (MSD R92TC) diluted 1:3 in H2O was added and plates were read on a Meso Scale Discovery Sector Imager S600.
KRAS signal was normalized to maximum inhibition and DMSO control values, and IC50 values were generated using a 4 parameter fit of the dose response curve. The decrease in IC50 reflects that the exemplary compound lead to a higher level of accumulation of GDP-bound KRAS G12C than another exemplary compounds at specific timepoint of treatment of cancer cell line.

The target in assay [3] is T2, KRAS G12C. In words: Cell Activity Assay: accumulation of GDP-bound KRAS G12C in MIAPaCa-2 cells (Raf-1 RBD capture, MSD readout). The class given is cell-based. Further details: endogenous in cells; host or cells: MIAPaCa-2. The conditions noted are these: 6 hours, assay limit is 30.00. The procedure, abridged:
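IC50 came from a 4-parameter fit of Ras signal normalized between DMSO and full-inhibition controls. Readout: lysate GTP-Ras bound to immobilized Raf-1 RBD, quantified with pan-Ras antibody and MSD electrochemiluminescence. Lysates derived from MIAPaCa-2 cells treated 6 h with serially diluted compound, 0.3% DMSO.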

The term IC50 denotes the concentration at which inhibition is half-maximal. Consider `C=CC(=O)N1CCN(c2nc(OC[C@H]3CN(C)C[C@@H]3OC)nc3c(Oc4c(Cl)c(F)cc5[nH]ncc45)nc(Cl)cc23)CC1` [Example 18G, 1-[4-(6-chloro-8-[(5-chloro-6-fluoro-1H-indazol-4-yl)oxy]-2-{[(3R,4R)-4-methoxy-1-methylpyrrolidin-3-yl]methoxy}pyrido[3,4-d]pyrimidin-4-yl)piperazin-1-yl]prop-2-en-1-one], for which, in assay [1], the “MSRA (% modification) 5.0 μM 0.017 hr” value is on record as 43%, the “MSRA (% modification) 5.0 μM 0.25 hr” value amounted to 88%, the “MSRA (% modification) 10 μM 0.25 hr” value was determined as 81% and the “MSRA (% modification) 10 μM 0.50 hr” value worked out at 84%. In addition, at KRAS G12C [2], inhibition was half-maximal at 0.087 µM (IC50). The IC50 against KRAS G12C [3] was 0.034 µM.

`C=CC(=O)N1CCN(c2nc(OC[C@@H]3CN(C)C[C@H]3OC)nc3c(Oc4c(Cl)c(F)cc5[nH]ncc45)nc(Cl)cc23)CC1` [Example 19G, 1-[4-(6-chloro-8-[(5-chloro-6-fluoro-1H-indazol-4-yl)oxy]-2-{[(3S,4S)-4-methoxy-1-methylpyrrolidin-3-yl]methoxy}pyrido[3,4-d]pyrimidin-4-yl)piperazin-1-yl]prop-2-en-1-one]: in assay [1], the “MSRA (% modification) 10 μM 0.25 hr” value was 60%. Besides, the IC50 at KRAS G12C [2] stood at 0.109 µM; against KRAS G12C [3], 0.051 µM.

As for `C=CC(=O)N1CCN(c2ncnc3c(Oc4c(Cl)c(F)cc5[nH]ncc45)nc(Cl)cc23)CC1` [Example 20A, 1-(4-{6-chloro-8-[(5-chloro-6-fluoro-1H-indazol-4-yl)oxy]pyrido[3,4-d]pyrimidin-4-yl}piperazin-1-yl)prop-2-en-1-one], in assay [1], the “MSRA (% modification) 5.0 μM 0.25 hr” value is given as 85%, the “MSRA (% modification) 10 μM 0.25 hr” value is 73% and the “MSRA (% modification) 10 μM 0.50 hr” value is listed as 80%. Also, the half-inhibitory concentration (IC50) against KRAS G12C [2] worked out at 0.758 µM. This compound gave a 50% inhibitory concentration (IC50) against KRAS G12C [3] of 0.255 µM.

Consider `C=CC(=O)N1CCN(c2nc(OC[C@@H]3C[C@H](OC)CN3C)nc3c(Oc4c(Cl)c(F)cc5[nH]ncc45)nc(Cl)cc23)CC1` [Example 20G, 1-[4-(6-chloro-8-[(5-chloro-6-fluoro-1H-indazol-4-yl)oxy]-2-{[(2S,4S)-4-methoxy-1-methylpyrrolidin-2-yl]methoxy}pyrido[3,4-d]pyrimidin-4-yl)piperazin-1-yl]prop-2-en-1-one], for which, in assay [1], the “MSRA (% modification) 5.0 μM 0.017 hr” value is given as 26% and the “MSRA (% modification) 10 μM 0.25 hr” value is 79%. The IC50 against KRAS G12C [2] was found to be 0.152 µM. In addition, the IC50 at KRAS G12C [3] is 0.08 µM.
